In US20230355626A1, “INHIBITORS OF HUMAN IMMUNODEFICIENCY VIRUS REPLICATION” (VIIV HEALTHCARE UK (NO.5) LIMITED, priority 2020, published 2023):
pEC50: −log10 of the molar value.

Experiments:
recombinant NL4-3 virus = assay: HIV cell culture assay (antiviral activity, luciferase readout in infected MT-2 cells); type: cell-based; conditions: Human immunodeficiency virus 1, NL43, MT2
Description: HIV cell culture assay—MT-2 cells, 293T cells and the proviral DNA clone of NL4-3 virus were obtained from the NIH AIDS Research and Reference Reagent Program. MT-2 cells were propagated in RPMI 1640 media supplemented with 10% heat inactivated fetal bovine serum (FBS), 100 μg/ml penicillin G and up to 100 units/mL streptomycin. The 293T cells were propagated in DMEM media supplemented with 10% heat inactivated FBS, 100 μg/mL penicillin G and 100 μg/mL streptomycin. A recombinant NL4-3 proviral clone, in which a section of the nef gene was replaced with the Renilla luciferase gene, was used to make the reference virus used in these studies. The recombinant virus was prepared through transfection of the recombinant NL4-3 proviral clone into 293T cells using Transit-293 Transfection Reagent from Mirus Bio LLC (Madison, WI). Supernatant was harvested after 2-3 days and the amount of virus present was titered in MT-2 cells using luciferase enzyme activity as a marker by measuring luciferase enzyme activity. Luciferase was quantitated using the EnduRen Live Cell Substrate from Promega (Madison, WI). Antiviral activities of compounds toward the recombinant virus were quantified by measuring luciferase activity in MT-2 cells infected for 4-5 days with the recombinant virus in the presence of serial dilutions of the compound.
The 50% effective concentration (EC50) was calculated by using the exponential form of the median effect equation where (Fa)=1/[1+(ED50/drug conc.)m] (Johnson VA, Byington RT. Infectivity Assay. In Techniques in HIV Research. ed. Aldovini A, Walker BD. 71-76. New York: Stockton Press.1990). Curve fitting and analysis were performed with ActivityBase XE Runner software version 9.1.0.4 using model 203 (ID Business Solutions, LTD, Guildford, UK).

[1] = Compound cytotoxicity, XTT-based colorimetric assay; type: cell-based; conditions: human; uninfected MT2 cells, day 4, XTT assay
Description: Compound cytotoxicity and the corresponding CC50 values were determined using the same protocol as described in the antiviral assay except that uninfected cells were used. Cytotoxicity was assessed on day 4 in uninfected MT2 cells by using an XTT (2,3-bis[2-Methoxy-4-nitro-5-sulfophenyl]-2H-tetrazolium-5-carboxyanilide inner salt)-based colorimetric assay (Sigma-Aldrich, St Louis, Mo).

Row | Structure (SMILES) | pEC50 (recombinant NL4-3 virus) | CC50 at 4 day [1] [nM]
1 | Cn1nc(NS(C)(=O)=O)c2c(Cl)ccc(-n3c([C@H](Cc4cc(F)cc(F)c4)NC(=O)Cn4nc(C(F)F)c5c4C(F)(F)[C@@H]4C[C@H]54)nc4nc(OCCC5CC5(F)F)ccc4c3=O)c21 (stereo partly drawn) [Example 38, N-((1S)-1-((3P,3P)-3-(4-chloro-1-methyl-3-(methylsulfonamido)-1H-indazol-7-yl)-7-(2-(2,2-difluorocyclopropyl)ethoxy)-4-oxo-3,4-dihydropyrido[2,3-d]pyrimidin-2-yl)-2-(3,5-difluorophenyl)ethyl)-2-((3bS,4aR)-3-(difluoromethyl)-5,5-difluoro-3b,4,4a,5-tetrahydro-1H-cyclopropa[3,4]cyclopenta[1,2-c]pyrazol-1-yl)acetamide] | 10.43 | > 100
2 | Cn1nc(NS(C)(=O)=O)c2c(Cl)ccc(-n3c([C@H](Cc4cc(F)cc(F)c4)NC(=O)Cn4nc(C(F)F)c5c4C(F)(F)[C@@H]4C[C@H]54)nc4nc(OCCOCC(F)(F)C(F)(F)F)ccc4c3=O)c21 (atropisomer, axis not shown; (P)) [Example 20, N-((S)-1-((3P)-3-(4-chloro-1-methyl-3-(methylsulfonamido)-1H-indazol-7-yl)-4-oxo-7-(2-(2,2,3,3,3-pentafluoropropoxy)ethoxy)-3,4-dihydropyrido[2,3-d]pyrimidin-2-yl)-2-(3,5-difluorophenyl)ethyl)-2-((3bS,4aR)-3-(difluoromethyl)-5,5-difluoro-3b,4,4a,5-tetrahydro-1H-cyclopropa[3,4]cyclopenta[1,2-c]pyrazol-1-yl)acetamide] | 10.35 | > 100
3 | Cn1nc(NS(C)(=O)=O)c2c(Cl)ccc(-n3c([C@H](Cc4cc(F)cc(F)c4)NC(=O)Cn4nc(C(F)F)c5c4C(F)(F)[C@@H]4C[C@H]54)nc4nc(OCc5nccn5C(F)F)ccc4c3=O)c21 (atropisomer, axis not shown; (P)) [Example 28, N-((S)-1-((3P)-3-(4-chloro-1-methyl-3-(methylsulfonamido)-1H-indazol-7-yl)-7-((1-(difluoromethyl)-1H-imidazol-2-yl)methoxy)-4-oxo-3,4-dihydropyrido[2,3-d]pyrimidin-2-yl)-2-(3,5-difluorophenyl)ethyl)-2-((3bS,4aR)-3-(difluoromethyl)-5,5-difluoro-3b,4,4a,5-tetrahydro-1H-cyclopropa[3,4]cyclopenta[1,2-c]pyrazol-1-yl)acetamide] | 9.06 | > 100
4 | Cn1nc(NS(C)(=O)=O)c2c(Cl)ccc(-n3c([C@H](Cc4cc(F)cc(F)c4)NC(=O)Cn4nc(C5CC5)c5c4C(F)(F)[C@@H]4C[C@H]54)nc4nc(OCC(F)(F)C(F)(F)F)ccc4c3=O)c21 (atropisomer, axis not shown; (P)) [Example 41, N-((S)-1-((3P, 3P)-3-(4-chloro-1-methyl-3-(methylsulfonamido)-1H-indazol-7-yl)-4-oxo-7-(2,2,3,3,3-pentafluoropropoxy)-3,4-dihydropyrido[2,3-d]pyrimidin-2-yl)-2-(3,5-difluorophenyl)ethyl)-2-((3bS,4aR)-3-cyclopropyl-5,5-difluoro-3b,4,4a,5-tetrahydro-1H-cyclopropa[3,4]cyclopenta[1,2-c]pyrazol-1-yl)acetamide] | 10.37 | > 100
5 | Cn1nc(NS(C)(=O)=O)c2c(Cl)ccc(-n3c([C@H](Cc4cc(F)cc(F)c4)NC(=O)Cn4nc(C(F)F)c5c4C(F)(F)[C@@H]4C[C@H]54)nc4nc(OCCC(C)(C)c5ccccc5)ccc4c3=O)c21 (atropisomer, axis not shown; (P)) [Example 5, N-((S)-1-((3P)-3-(4-chloro-1-methyl-3-(methylsulfonamido)-1H-indazol-7-yl)-7-(3-methyl-3-phenylbutoxy)-4-oxo-3,4-dihydropyrido[2,3-d]pyrimidin-2-yl)-2-(3,5-difluorophenyl)ethyl)-2-((3bS,4aR)-3-(difluoromethyl)-5,5-difluoro-3b,4,4a,5-tetrahydro-1H-cyclopropa[3,4]cyclopenta[1,2-c]pyrazol-1-yl)acetamide] | 9.37 | > 100
6 | Cn1nc(NS(C)(=O)=O)c2c(Cl)ccc(-n3c([C@H](Cc4cc(F)cc(F)c4)NC(=O)Cn4nc(C(F)F)c5c4C(F)(F)[C@@H]4C[C@H]54)nc4nc(Oc5ccc(F)cc5F)ccc4c3=O)c21 (atropisomer, axis not shown; (P)) [Example 36, N-((S)-1-((3P)-3-(4-chloro-1-methyl-3-(methylsulfonamido)-1H-indazol-7-yl)-7-(2,4-difluorophenoxy)-4-oxo-3,4-dihydropyrido[2,3-d]pyrimidin-2-yl)-2-(3,5-difluorophenyl)ethyl)-2-((3bS,4aR)-3-(difluoromethyl)-5,5-difluoro-3b,4,4a,5-tetrahydro-1H-cyclopropa[3,4]cyclopenta[1,2-c]pyrazol-1-yl)acetamide] | 10.09 | > 100
7 | Cn1nc(NS(C)(=O)=O)c2c(Cl)ccc(-n3c([C@H](Cc4cc(F)cc(F)c4)NC(=O)Cn4nc(C(F)F)c5c4C(F)(F)[C@@H]4C[C@H]54)nc4nc(OCc5cccc(C(F)(F)F)n5)ccc4c3=O)c21 (atropisomer, axis not shown; (P)) [Example 22, N-((S)-1-((3P)-3-(4-chloro-1-methyl-3-(methylsulfonamido)-1H-indazol-7-yl)-4-oxo-7-((6-(trifluoromethyl)pyridin-2-yl)methoxy)-3,4-dihydropyrido[2,3-d]pyrimidin-2-yl)-2-(3,5-difluorophenyl)ethyl)-2-((3bS,4aR)-3-(difluoromethyl)-5,5-difluoro-3b,4,4a,5-tetrahydro-1H-cyclopropa[3,4]cyclopenta[1,2-c]pyrazol-1-yl)acetamide] | 10.26 | > 100
8 | COC(C)(C)CCOc1ccc2c(=O)n(-c3ccc(Cl)c4c(NS(C)(=O)=O)nn(C)c34)c([C@H](Cc3cc(F)cc(F)c3)NC(=O)Cn3nc(C(F)F)c4c3C(F)(F)[C@@H]3C[C@H]43)nc2n1 (atropisomer, axis not shown; (P)) [Example 15, N-((S)-1-((3P)-3-(4-chloro-1-methyl-3-(methylsulfonamido)-1H-indazol-7-yl)-7-(3-methoxy-3-methylbutoxy)-4-oxo-3,4-dihydropyrido[2,3-d]pyrimidin-2-yl)-2-(3,5-difluorophenyl)ethyl)-2-((3bS,4aR)-3-(difluoromethyl)-5,5-difluoro-3b,4,4a,5-tetrahydro-1H-cyclopropa[3,4]cyclopenta[1,2-c]pyrazol-1-yl)acetamide] | 10.72 | > 500
9 | Cn1nc(NS(C)(=O)=O)c2c(Cl)ccc(-n3c([C@H](Cc4cc(F)cc(F)c4)NC(=O)Cn4nc(C(F)F)c5c4C(F)(F)[C@@H]4C[C@H]54)nc4nc(OCCOCC(F)(F)F)ccc4c3=O)c21 (atropisomer, axis not shown; (P)) [Example 26, N-((S)-1-((3P)-3-(4-chloro-1-methyl-3-(methylsulfonamido)-1H-indazol-7-yl)-4-oxo-7-(2-(2,2,2-trifluoroethoxy)ethoxy)-3,4-dihydropyrido[2,3-d]pyrimidin-2-yl)-2-(3,5-difluorophenyl)ethyl)-2-((3bS,4aR)-3-(difluoromethyl)-5,5-difluoro-3b,4,4a,5-tetrahydro-1H-cyclopropa[3,4]cyclopenta[1,2-c]pyrazol-1-yl)acetamide] | 10.62 | > 100
10 | Cn1nc(NS(C)(=O)=O)c2c(Cl)ccc(-n3c([C@H](Cc4cc(F)cc(F)c4)NC(=O)Cn4nc(C(F)F)c5c4C(F)(F)[C@@H]4C[C@H]54)nc4nc(OCC5CC(F)(F)C5)ccc4c3=O)c21 (atropisomer, axis not shown; (P)) [Example 31, N-((S)-1-((3P)-3-(4-chloro-1-methyl-3-(methylsulfonamido)-1H-indazol-7-yl)-7-((3,3-difluorocyclobutyl)methoxy)-4-oxo-3,4-dihydropyrido[2,3-d]pyrimidin-2-yl)-2-(3,5-difluorophenyl)ethyl)-2-((3bS,4aR)-3-(difluoromethyl)-5,5-difluoro-3b,4,4a,5-tetrahydro-1H-cyclopropa[3,4]cyclopenta[1,2-c]pyrazol-1-yl)acetamide] | 10.46 | > 100
11 | Cn1nc(NS(C)(=O)=O)c2c(Cl)ccc(-n3c([C@H](Cc4cc(F)cc(F)c4)NC(=O)Cn4nc(C(F)F)c5c4C(F)(F)[C@@H]4C[C@H]54)nc4nc(OCc5cccnc5)ccc4c3=O)c21 (atropisomer, axis not shown; (P)) [Example 3, N-[(1S)-1-[(3P)-3-(4-chloro-3-methanesulfonamido-1-methyl-1H-indazol-7-yl)-4-oxo-7-[(pyridin-3-yl)methoxy]-3H,4H-pyrido[2,3-d]pyrimidin-2-yl]-2-(3,5-difluorophenyl)ethyl]-2-[(2S,4R)-9-(difluoromethyl)-5,5-difluoro-7,8-diazatricyclo[4.3.0.0^2,^4]nona-1(6),8-dien-7-yl]acetamide] | 10.32 | > 100
